Measurements reported in PubChem BioAssay (NCI).
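Interpolation was linear, between the two tested concentrations surrounding the appropriate level; five concentrations were tested over 48 hours in 96-well plates. Here, GI50 denotes the concentration required for 50% inhibition of growth. TGI denotes the concentration required for complete inhibition of growth.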

Assays:
Assay in all cases: NCI anticancer screen, dose series, 48 h; in the data active means GI50 below about 0.43 µM; inactive means the rest
786-0 renal = test system: 786-0 renal
A498 renal = test system: A498 renal
A549 NSCLC = test system: A549 NSCLC
ACHN renal = test system: ACHN renal
BT-549 breast = test system: BT-549 breast
CAKI-1 renal = test system: CAKI-1 renal
CCRF-CEM leukemia = test system: CCRF-CEM leukemia
COLO 205 colon = test system: COLO 205 colon
DU-145 prostate = test system: DU-145 prostate
EKVX NSCLC = test system: EKVX NSCLC
HCC-2998 colon = test system: HCC-2998 colon
HCT-116 colon = test system: HCT-116 colon
HCT-15 colon = test system: HCT-15 colon
HL-60(TB) leukemia = test system: HL-60(TB) leukemia
HOP-62 NSCLC = test system: HOP-62 NSCLC
HOP-92 NSCLC = test system: HOP-92 NSCLC
HS 578T breast = test system: HS 578T breast
HT29 colon = test system: HT29 colon
IGROV1 ovarian = test system: IGROV1 ovarian
K-562 leukemia = test system: K-562 leukemia
KM12 colon = test system: KM12 colon
LOX IMVI melanoma = test system: LOX IMVI melanoma
M14 melanoma = test system: M14 melanoma
MALME-3M melanoma = test system: MALME-3M melanoma
MCF7 breast = test system: MCF7 breast
MDA-MB-231 breast = test system: MDA-MB-231 breast
MDA-MB-435 = test system: MDA-MB-435
MDA-N = test system: MDA-N
MOLT-4 leukemia = test system: MOLT-4 leukemia
NCI-H226 lung = test system: NCI-H226 lung
NCI-H23 lung = test system: NCI-H23 lung
NCI-H460 lung = test system: NCI-H460 lung
NCI-H522 lung = test system: NCI-H522 lung
NCI/ADR-RES ovarian = test system: NCI/ADR-RES ovarian
OVCAR-3 ovarian = test system: OVCAR-3 ovarian
OVCAR-4 ovarian = test system: OVCAR-4 ovarian
OVCAR-5 ovarian = test system: OVCAR-5 ovarian
OVCAR-8 ovarian = test system: OVCAR-8 ovarian
PC-3 prostate = test system: PC-3 prostate
RPMI-8226 leukemia = test system: RPMI-8226 leukemia
SF-295 CNS = test system: SF-295 CNS
SF-539 CNS = test system: SF-539 CNS
SK-MEL-2 melanoma = test system: SK-MEL-2 melanoma
SK-MEL-28 melanoma = test system: SK-MEL-28 melanoma
SK-MEL-5 melanoma = test system: SK-MEL-5 melanoma
SK-OV-3 ovarian = test system: SK-OV-3 ovarian
SN12C renal = test system: SN12C renal
SNB-19 CNS = test system: SNB-19 CNS
SNB-75 CNS = test system: SNB-75 CNS
SR leukemia = test system: SR leukemia
SW-620 colon = test system: SW-620 colon
T-47D breast = test system: T-47D breast
TK-10 renal = test system: TK-10 renal
U251 CNS = test system: U251 CNS
UACC-257 melanoma = test system: UACC-257 melanoma
UACC-62 melanoma = test system: UACC-62 melanoma
UO-31 renal = test system: UO-31 renal
SF-268 CNS = test system: SF-268 CNS

NNC(=O)CCCCCCCC(=O)O
> 100 µM: TGI (786-0 renal) | TGI (A498 renal) | TGI (A549 NSCLC) | TGI (ACHN renal) | TGI (BT-549 breast) | TGI (CAKI-1 renal) | TGI (CCRF-CEM leukemia) | TGI (COLO 205 colon) | TGI (DU-145 prostate) | TGI (EKVX NSCLC) | TGI (HCC-2998 colon) | TGI (HCT-116 colon) | TGI (HCT-15 colon) | TGI (HL-60(TB) leukemia) | TGI (HOP-62 NSCLC) | TGI (HOP-92 NSCLC) | TGI (HS 578T breast) | TGI (HT29 colon) | TGI (IGROV1 ovarian) | TGI (K-562 leukemia) | TGI (KM12 colon) | TGI (LOX IMVI melanoma) | TGI (M14 melanoma) | TGI (MALME-3M melanoma) | TGI (MCF7 breast) | TGI (MDA-MB-231 breast) | TGI (MDA-MB-435) | TGI (MDA-N) | TGI (MOLT-4 leukemia) | TGI (NCI-H226 lung) | TGI (NCI-H23 lung) | TGI (NCI-H460 lung) | TGI (NCI-H522 lung) | TGI (NCI/ADR-RES ovarian) | TGI (OVCAR-3 ovarian) | TGI (OVCAR-4 ovarian) | TGI (OVCAR-5 ovarian) | TGI (OVCAR-8 ovarian) | TGI (PC-3 prostate) | TGI (RPMI-8226 leukemia) | TGI (SF-295 CNS) | TGI (SF-539 CNS) | TGI (SK-MEL-2 melanoma) | TGI (SK-MEL-28 melanoma) | TGI (SK-MEL-5 melanoma) | TGI (SK-OV-3 ovarian) | TGI (SN12C renal) | TGI (SNB-19 CNS) | TGI (SNB-75 CNS) | TGI (SR leukemia) | TGI (SW-620 colon) | TGI (T-47D breast) | TGI (TK-10 renal) | TGI (U251 CNS) | TGI (UACC-257 melanoma) | TGI (UACC-62 melanoma) | TGI (UO-31 renal)

O=C1CNc2cc(N3CCN(c4cccc(C(F)(F)F)c4)CC3)ccc2N1
69.9 µM: TGI (MALME-3M melanoma)
> 91.1 µM: TGI (NCI/ADR-RES ovarian)
40.3 µM: TGI (SK-MEL-5 melanoma)
inactive: GI50 (A498 renal) 24.7 µM | GI50 (K-562 leukemia) 9 µM
> 86.1 µM: TGI (UACC-62 melanoma)
> 67.5 µM: TGI (RPMI-8226 leukemia)
> 84.3 µM: TGI (MOLT-4 leukemia)
> 82.7 µM: TGI (PC-3 prostate)
46 µM: TGI (NCI-H522 lung)
> 83.5 µM: TGI (HL-60(TB) leukemia)
> 91.7 µM: TGI (COLO 205 colon)
> 100 µM: TGI (786-0 renal) | TGI (A498 renal) | TGI (A549 NSCLC) | TGI (ACHN renal) | TGI (BT-549 breast) | TGI (CAKI-1 renal) | TGI (CCRF-CEM leukemia) | TGI (DU-145 prostate) | TGI (EKVX NSCLC) | TGI (HCC-2998 colon) | TGI (HCT-116 colon) | TGI (HCT-15 colon) | TGI (HOP-62 NSCLC) | TGI (HS 578T breast) | TGI (HT29 colon) | TGI (IGROV1 ovarian) | TGI (K-562 leukemia) | TGI (KM12 colon) | TGI (LOX IMVI melanoma) | TGI (M14 melanoma) | TGI (MDA-MB-231 breast) | TGI (MDA-MB-435) | TGI (MDA-N) | TGI (NCI-H226 lung) | TGI (NCI-H23 lung) | TGI (NCI-H460 lung) | TGI (OVCAR-3 ovarian) | TGI (OVCAR-4 ovarian) | TGI (OVCAR-5 ovarian) | TGI (OVCAR-8 ovarian) | TGI (SF-268 CNS) | TGI (SF-539 CNS) | TGI (SK-MEL-2 melanoma) | TGI (SK-MEL-28 melanoma) | TGI (SK-OV-3 ovarian) | TGI (SN12C renal) | TGI (SNB-19 CNS) | TGI (SNB-75 CNS) | TGI (SR leukemia) | TGI (SW-620 colon) | TGI (T-47D breast) | TGI (TK-10 renal) | TGI (U251 CNS) | TGI (UACC-257 melanoma) | TGI (UO-31 renal)
> 92.3 µM: TGI (SF-295 CNS)
> 78.8 µM: TGI (HOP-92 NSCLC)
> 90.1 µM: TGI (MCF7 breast)
